One data set concerns Sphaerotheca fuliginea. Kind of data set: Sphaerotheca test (cucumber)/protective. The class given is in vivo. The conditions noted are these: protective spray, application rate 100 g/ha, evaluation 7 days after inoculation. As to the method: (§1) To produce a suitable preparation of active compound, 1 part by weight of active compound is mixed with the stated amounts of solvents and emulsifier, and the concentrate is diluted with water to the desired concentration.
To test for protective activity, young plants are sprayed with the preparation of active compound at the stated application rate. After the spray coating has dried on, the plants are inoculated with an aqueous spore suspension of Sphaerotheca fuliginea. The plants are then placed in a greenhouse at about 23° C. and a relative atmospheric humidity of about 70%.
Evaluation was carried out 7 days after the inoculation. 0% means an efficacy which corresponds to that of the control, whereas an efficacy of 100% means that no infection is observed.

The nature of data set [1]: log P determination by HPLC on reversed-phase column (EEC Directive 79/831 Annex V.A8). The class given is physicochemical. The conditions noted are these: reversed-phase C18 HPLC column, pH 2.3, C18, 43° C., 0.1% aqueous phosphoric acid/acetonitrile gradient. As to the method:
The given log P values were determined in accordance with EEC Directive 79/831 Annex V.A8 by HPLC (High Performance Liquid Chromatography) on a reversed-phase column (C 18). Temperature: 43° C. Mobile phases for the determination in the acidic range (pH 2.3): 0.1% aqueous phosphoric acid, acetonitrile; linear gradient from 10% acetonitrile to 90% acetonitrile. Calibration was carried out using unbranched alkan-2-ones (having 3 to 16 carbon atoms) with known logP values (determination of the logP values by the retention times using linear interpolation between two successive alkanones). The lambda max values were determined in the maxima of the chromatographic signals using the UV spectra from 200 nm to 400 nm.

Another data set relates to Alternaria mali. The data set can be described thus: In vitro test for the ED50 determination in microorganisms. The settings on record: 50% inhibition of fungal growth, potato dextrose medium, 20° C., 3-5 days, photometric 620 nm, tested at 0.05, 0.5, 5 and 50 ppm. The class given is cell-based. As to the method:
A methanolic solution of the active compound to be tested, admixed with emulsifier PS16, is pipetted into the wells of a microtitre plate. After the solvent has evaporated, 200 μl of potato dextrose medium are added to each well. Beforehand, a suitable concentration of spores or mycelium of the fungus to be tested was added to the medium. The resulting concentrations of active compound are 0.05, 0.5, 5 and 50 ppm. The resulting concentration of the emulsifier is 300 ppm.
The plates are then incubated on a shaker at a temperature of 20° C. for 3-5 days, until sufficient growth can be observed in the untreated control.
Evaluation is carried out photometrically at a wavelength of 620 nm. The dose of active compound which causes 50% inhibition of fungal growth compared to the untreated control (ED50) is calculated from data measured at different concentrations.

For a further data set, the system named is Botrytis cinerea. The data set can be described thus: Botrytis test (bean)/protective. The class given is in vivo. The conditions noted are these: protective spray, application rate 500 g/ha, evaluation 2 days after inoculation. As for the experimental part:
as §1
To test for protective activity, young plants are sprayed with the preparation of active compound at the stated application rate. After the spray coating has dried on, 2 small pieces of agar colonized by Botrytis cinerea are placed onto each leaf. The inoculated plants are placed in a dark chamber at about 20° C. and 100% atmospheric humidity.
The size of the infected areas of the leaves is evaluated 2 days after the inoculation. 0% means an efficacy which corresponds to that of the control, whereas an efficacy of 100% means that no infection is observed.

Another data set relates to Puccinia recondita. The data set can be described thus: Puccinia test (wheat)/protective. The settings on record: protective spray, application rate 500 g/ha, evaluation 10 days after inoculation. It is filed as in vivo. As to the method:
To produce a suitable preparation of active compound, 1 part by weight of active compound is mixed with the stated amounts of solvent and emulsifier, and the concentrate is diluted with water to the desired concentration.
To test for protective activity, young plants are sprayed with the preparation of active compound at the stated application rate. After the spray coating has dried on, the plants are sprayed with a conidia suspension of Puccinia recondita. The plants remain in an incubation cabin at 20° C. and 100% relative atmospheric humidity for 48 hours.
The plants are then placed in a greenhouse at a temperature of about 20° C. and a relative atmospheric humidity of 80% to promote the development of rust pustules.
(§2) Evaluation is carried out 10 days after the inoculation. 0% means an efficacy which corresponds to that of the control, whereas an efficacy of 100% means that no infection is observed.

The subject of a further data set is Venturia inaequalis. Kind of data set: Venturia test (apple)/protective. It is filed as in vivo. The settings on record: protective spray, application rate 100 g/ha, evaluation 10 days after inoculation. As for the experimental part: as §1
To test for protective activity, young plants are sprayed with the preparation of active compound at the stated application rate. After the spray coating has dried on, the plants are inoculated with an aqueous conidia suspension of the apple scab pathogen Venturia inaequalis and then remain in an incubation cabin at about 20° C. and 100% relative atmospheric humidity for 1 day.
The plants are then placed in a greenhouse at about 21° C. and a relative atmospheric humidity of about 90%.
as §2

Another data set relates to Podosphaera leucotricha. Kind of data set: Podosphaera test (apple)/protective. It is filed as in vivo. The conditions noted are these: protective spray, application rate 100 g/ha, evaluation 10 days after inoculation. As to the method:
as §1
To test for protective activity, young plants are sprayed with the preparation of active compound at the stated application rate. After the spray coating has dried on, the plants are inoculated with an aqueous spore suspension of the apple mildew pathogen Podosphaera leucotricha. The plants are then placed in a greenhouse at about 23° C. and a relative atmospheric humidity of about 70%.
as §2

Turning to `Cn1cc(C(=O)Nc2ccsc2CC[Si](C)(C)C)c(I)n1` [drawing 83], the Efficacy in % in the data set on Sphaerotheca fuliginea is on record as 98%. `C[Si](C)(C)CCc1sccc1N` [Example (III-1), 2-(2-trimethylsilanylethyl)thiophen-3-ylamine]: in data set [1], the chromatographic logP was 1.78. Turning to `Cn1cc(C(=O)Nc2ccsc2CC[Si](C)(C)C)c(C(F)(F)F)n1` [drawing 79], in the data set on Sphaerotheca fuliginea, the Efficacy in % turned out to be 100%. In the data set on Alternaria mali, `Cc1nc(C(F)F)c(C(=O)Nc2ccsc2CC[Si](C)(C)C)s1` [drawing 101] had an ED50 value below 0.05 ppm. The compound `C[Si](C)(C)CCc1sccc1NC(=O)c1cccnc1Cl` [Example 1, 2-chloro-N-{2-[2-(trimethylsilyl)ethyl]-3-thienyl}nicotinamide] gave a chromatographic logP in data set [1] of 3.65.

Take `Cc1nn(C)c(F)c1C(=O)Nc1ccsc1CC[Si](C)(C)C` [drawing 93]: the Efficacy in % in the data set on Botrytis cinerea is 100%. On the same count and under the same terms, under `Cn1cc(C(=O)Nc2ccsc2CC[Si](C)(C)C)c(I)n1` [drawing 95] stands 100%.

For `Cn1cc(C(=O)Nc2ccsc2CC[Si](C)(C)C)c(C(F)(F)F)n1` [drawing 97], the Efficacy in % in the data set on Puccinia recondita was 100%. Consider `Cc1nn(C)c(F)c1C(=O)Nc1ccsc1CC[Si](C)(C)C` [drawing 87], for which the Efficacy in % with Venturia inaequalis is listed as 100%. As to `Cn1cc(C(=O)Nc2ccsc2CC[Si](C)(C)C)c(C(F)F)n1` [drawing 92], the Efficacy in % with Botrytis cinerea is recorded as 100%.

In turn, `Cc1nc(C(F)F)c(C(=O)Nc2ccsc2CC[Si](C)(C)C)s1` [drawing 96] yielded an Efficacy in % in the data set with Puccinia recondita of 100%. `C[Si](C)(C)CCc1sccc1NC(=O)c1cccnc1Cl` [drawing 103] gave an ED50 value in the data set on Alternaria mali below 0.05 ppm. On the same count and under the same terms, the value for `Cn1cc(C(=O)Nc2ccsc2CC[Si](C)(C)C)c(C(F)F)n1` [drawing 105] was below 0.05 ppm. Compound `Cn1cc(C(=O)Nc2ccsc2CC[Si](C)(C)C)c(C(F)(F)F)c1` [drawing 88] displayed an Efficacy in % in the data set with Venturia inaequalis of 99%. Regarding `Cn1cc(C(=O)Nc2ccsc2CC[Si](C)(C)C)c(C(F)(F)F)n1` [drawing 85], the Efficacy in % in the data set with Venturia inaequalis came to 100%.

As to `Cc1nc(C(F)F)c(C(=O)Nc2ccsc2CC[Si](C)(C)C)s1` [drawing 90], the Efficacy in % in the data set with Botrytis cinerea was determined as 100%. `Cn1cc(C(=O)Nc2ccsc2CC[Si](C)(C)C)c(I)n1` [drawing 89] displayed an Efficacy in % with Venturia inaequalis of 100%. `Cc1nc(C(F)F)c(C(=O)Nc2ccsc2CC[Si](C)(C)C)s1` [drawing 84] showed an Efficacy in % with Venturia inaequalis of 100%. Same read-out and setting: the value for `Cn1cc(C(=O)Nc2ccsc2CC[Si](C)(C)C)c(C(F)F)n1` [drawing 86] was 100%. In the data set with Podosphaera leucotricha, `Cn1cc(C(=O)Nc2ccsc2CC[Si](C)(C)C)c(C(F)(F)F)c1` [drawing 77] displayed an Efficacy in % of 99%. Turning to `Cn1cc(C(=O)Nc2ccsc2CC[Si](C)(C)C)c(C(F)(F)F)n1` [drawing 91], in the data set on Botrytis cinerea, the Efficacy in % is on record as 100%. Consider `Cn1cc(C(=O)Nc2ccsc2CC[Si](C)(C)C)c(C(F)(F)F)c1` [drawing 94], for which the Efficacy in % in the data set with Botrytis cinerea worked out at 100%. The compound `Cn1cc(C(=O)Nc2ccsc2CC[Si](C)(C)C)c(C(F)(F)F)c1` [drawing 82] returned an Efficacy in % in the data set on Sphaerotheca fuliginea of 100%. In the data set with Podosphaera leucotricha, `Cn1cc(C(=O)Nc2ccsc2CC[Si](C)(C)C)c(C(F)(F)F)n1` [drawing 74] gave an Efficacy in % of 100%. In turn, `Cc1nn(C)c(F)c1C(=O)Nc1ccsc1CC[Si](C)(C)C` [drawing 99] returned an Efficacy in % with Puccinia recondita of 100%. In the case of `Cc1nn(C)c(F)c1C(=O)Nc1ccsc1CC[Si](C)(C)C` [drawing 81], the Efficacy in % with Sphaerotheca fuliginea was 100%. On to `Cn1cc(C(=O)Nc2ccsc2CC[Si](C)(C)C)c(C(F)(F)F)c1` [drawing 104], for which the ED50 value with Alternaria mali was below 0.05 ppm. For `Cc1nc(C(F)F)c(C(=O)Nc2ccsc2CC[Si](C)(C)C)s1` [drawing 78], the Efficacy in % with Sphaerotheca fuliginea was 100%. In turn, `Cn1cc(C(=O)Nc2ccsc2CC[Si](C)(C)C)c(C(F)(F)F)n1` [drawing 100] gave an ED50 value in the data set with Alternaria mali below 0.05 ppm.

With `C[Si](C)(C)CCc1sccc1NC(=O)c1ccccc1C(F)(F)F`, the ED50 value in the data set with Alternaria mali is below 0.05 ppm. `Cn1cc(C(=O)Nc2ccsc2CC[Si](C)(C)C)c(C(F)F)n1` [drawing 75] gave an Efficacy in % in the data set with Podosphaera leucotricha of 100%.

In the case of `Cc1nc(C(F)F)c(C(=O)Nc2ccsc2CC[Si](C)(C)C)s1` [drawing 73], the Efficacy in % in the data set with Podosphaera leucotricha is recorded as 100%. In the data set on Sphaerotheca fuliginea, `Cn1cc(C(=O)Nc2ccsc2CC[Si](C)(C)C)c(C(F)F)n1` [drawing 80] returned an Efficacy in % of 100%. In the data set with Podosphaera leucotricha, `Cc1nn(C)c(F)c1C(=O)Nc1ccsc1CC[Si](C)(C)C` [drawing 76] returned an Efficacy in % of 100%. For `Cn1cc(C(=O)Nc2ccsc2CC[Si](C)(C)C)c(C(F)F)n1` [drawing 98], in the data set with Puccinia recondita, the Efficacy in % was 100%.

The values above are taken from US7897780B2, “Method for controlling phytopathogenic fungi using silylated carboxamides” (Bayer CropScience AG, priority 2004, dated 2011).
